Results taken from PMC4279406, “Simultaneous targeting of PI3Kδ and a PI3Kδ-dependent MEK1/2-Erk1/2 pathway for therapy in pediatric B-cell acute lymphoblastic leukemia” (Oncotarget, 2014).

Columns and labels:
Type in all cases: cell-based, human
Raji MEK DD cells [1] = experiment: Erk1/2 phosphorylation in Raji cells expressing MEK DD (Western blot); details: 1 h
Procedure: (§1) Figure 5 Inhibition of Erk1/2 phosphorylation by X-370 contributed to its antiproliferative activity (A-C) X-370 inhibited Erk1/2 phosphorylation via PI3K-PDK1-MEK1/2 cascade but not the PI3K-Gab1 positive feedback loop. (A) Raji and SU-DHL-6 cells were exposed to 1 μM X370 for 3 h and protein fraction from cellular membrane was separated using Native Membrane Protein Extraction Kit and probed. WCL: whole cell lysate. (B) Inhibition of PDK1 or MEK1/2 abrogated Erk1/2 phosphorylation. Cells were treated with pharmacological inhibitors of Raf (AZ 628, PLX4032), MEK1/2 (AZD6244), p90RSK (BI-D1870), PI3Kδ (X-370), PDK1 (BX-912), Akt (MK-2206), mTOR (AZD8055) or mTORC1 (Rapamycin) respectively and indicated proteins were detected. (C) X-370 disrupted the association between PDK1 and MEK1/2. Raji cells were treated with 1 μM X370 for 1 h and cell lysates were immunoprecipitated with anti-PDK1 antibody and indicated proteins were detected. WCL: whole cell lysate. […] (E) Raji and Raji MEK DD cells were treated with X-370 for 72 h and cell proliferation was detected by CCK-8 assay. (F) Raji MEK DD cells were treated with X-370 and AZD6244 and cell proliferation was detected by CCK-8 assay. Data were show as mean ± SD of three independent experiments. *: p < 0.05 determined by t-tests at each data point. […]

[2] = tested on: Raji cells expressing luciferase; experiment: Viability of Raji cells expressing luciferase (CCK-8); details: 1 μM, 72 h
Procedure: Cell viability was assessed using Cell Counting Kit (CCK-8, Dojindo, Japan) following the manufacturer's protocol and OD values were measured with a Spectramax M5 plate reader (Molecular Devices, Sunnyvale, CA)[45].
Figure S6: CAL-101 inhibited both Akt and Erk1/2 signaling in Raji and SU-DHL -6 cells. Raji and SU-DHL-6 cells were incubated with CAL-101 for an hour and then collected to perform Western blot, the […]
luciferase. Raji cells expressing MEK DD or luciferase were incubated with 1 μM AZD6244 or DMSO control respectively for 72 h, and then cell viability were assessed by CCK-8 reagent. NS indicated no significance. Data were show as mean + SD of three independent experiments. […]

Raji MEK DD cells [3] = experiment: Proliferation of Raji MEK DD cells (CCK-8); details: Raji MEK DD; 1 μM, 72 h, CCK-8
Procedure: as §1, with “(C) X-370 disrupted the association between PDK1 and MEK1/2.” left out, “detected.” for “detected. WCL: whole cell lysate.”
luciferase. Raji cells expressing MEK DD or luciferase were incubated with 1 μM AZD6244 or DMSO control respectively for 72 h, and then cell viability were assessed by CCK-8 reagent. […]

Raji cells = experiment: Signaling by Western blot
Procedure: (§2) Raji and SU-DHL-6 cells were treated with X-370 for 1 h (left panel) or treated with 0.5 μM X-370 for indicated times (middle panel). Right panel, Raji cells were incubated in fresh medium following treatment with 0.5 μM X-370 for 1 h. Indicated proteins were detected. (B) Raji-R (the rituximab-resistant derivatives of Raji cells) cells were resistant to X-370. The activity of X-370 on the proliferation of Raji parent and Raji-R cells was determined by CCK-8 assay as described in the methods section. (C) X-370 blocked phosphorylation of Akt but not Erk1/2 in Raji-R cells. Raji-R cells were treated with X-370 for 1h and indicated proteins were detected. Data shown are representative from three independent experiments.
(§3) Figure 5 Inhibition of Erk1/2 phosphorylation by X-370 contributed to its antiproliferative activity (A-C) X-370 inhibited Erk1/2 phosphorylation via PI3K-PDK1-MEK1/2 cascade but not the PI3K-Gab1 positive feedback loop. (A) Raji and SU-DHL-6 cells were exposed to 1 μM X370 for 3 h and protein fraction from cellular membrane was separated using Native Membrane Protein Extraction Kit and probed. WCL: whole cell lysate. (B) Inhibition of PDK1 or MEK1/2 abrogated Erk1/2 phosphorylation. Cells were treated with pharmacological inhibitors of Raf (AZ 628, PLX4032), MEK1/2 (AZD6244), p90RSK (BI-D1870), PI3Kδ (X-370), PDK1 (BX-912), Akt (MK-2206), mTOR (AZD8055) or mTORC1 (Rapamycin) respectively and indicated proteins were detected. (C) X-370 disrupted the association between PDK1 and MEK1/2. Raji cells were treated with 1 μM X370 for 1 h and cell lysates were immunoprecipitated with anti-PDK1 antibody and indicated proteins were detected. WCL: whole cell lysate. (D-F) Inhibition of Erk1/2 phosphorylation was required for the anti-proliferative activity of X-370. (D) Raji cells ectopically expressing a constitutively activated phospho-mimic MEK1 mutant (MEK1 […] or MEK DD) were incubated with X-370 or AZD6244 for 1 h and then subjected to Western blot. (E) Raji and Raji MEK DD cells were treated with X-370 for 72 h and cell proliferation was detected by CCK-8 assay. (F) Raji MEK DD cells were treated with X-370 and AZD6244 and cell proliferation was detected by CCK-8 assay. Data were show as mean ± SD of three independent experiments. *: p < 0.05 determined by t-tests at each data point. […]
(§4) Cells were treated as indicated conditions and then subjected to lysate to perform standard Western blot as described previously1. Briefly, whole-cell lysates and SDS-loading buffer diluted cell fractions were analyzed on SDS-PAGE gels. Transfer to nitrocellulose membranes, nonfat milk blocking, probing with indicated primary antibodies and the corresponding HRP-conjugated second antibodies.
(§5) Chemiluminescence were performed and captured using ImageQuant LAS 4000 (GE healthcare Life Sciences, Piscataway, NJ, USA) and band intensity was measure both with ImageQuant™ TL (GE Healthcare Life Sciences) 2. […]
(§6) (also on this page, place not known: PI3Kδ -dependent MEK1/2 - B -cell previously 1. whole -cell SDS -loading SDS -PAGE HRP -conjugated (G E A B Val828 Trp760 Thr750 Met752 Tyr813 affinity pocket specificity pocket hinge Glu826 CAL-101 X-370) […]
(§7) (1 picture or pasted object on this page, not shown here)

SU-DHL-6 cells = experiment: Signaling by Western blot
Procedure: as §2, §3, §4, §5, §6, §7

Rh30-Myr-p110δ cells = experiment: Akt phosphorylation in isogenic Rh30-Myr-p110 cells (Western blot); details: panel of isogenic Rh30-Myr-p110α/β/γ/δ cells, 1 h
From the text: To assess the selectivity of X-370 in the context of an isogenic cellular background, we generated a panel of Rh30 human rhabdomyosarcoma cell lines each of which stably expresses a single myristoylated (Myr)-epitope tagged p110 human class I PI3K catalytic subunit, termed as Rh30-Myr-p110α, Rh30-Myr-p110β, Rh30-Myr-p110γ or Rh30-Myr-p110δ. In these cells, endogenous PI3K is not activated under serum-free culture conditions, whereas the ectopically expressed p110 isoforms are membrane-anchored and constitutively active due to myristoylation at N-terminal. Utilizing this cell panel, isoform-specific PI3K activity can be determined for any given inhibitor[25]. These cells were treated with X-370 and phosphorylated Akt was detected as the readout of PI3K activity. X-370 inhibited phosphorylation of Akt at both Thr308 and Ser473 in a dose-dependent manner in four tested cell lines (Figure 2A). […] Similar property was also observed in CAL-101 (Figure S2).
Cell lysates were probed with indicated antibodies. The IC50 values were calculated based on relative band intensity measured with ImageQuant™ TL (GE Healthcare Life Sciences, Piscataway, NJ) (B). Data shown are mean values from three independent experiments. (C, D, E, F) X-370 blocked stimuli-triggered PI3Kδ activation. MEF cells and THP-1 were starved in serum-free medium for 12 h or 4 h respectively and X-370 were added for an additional 1 h treatment following stimulation of IGF-1 at 100 ng/ml for MEF cells (C), LPA at 10 μM for MEF cells (D), MCP-1 at 100ng/ml for THP-1 (E) and M-CSF at 50 ng/ml for THP-1 (F). Similar results were derived from 3 independent experiments. TEXT PRINTED IN THE PICTURE: (B) X-370: IC50 (μM) in Rh30-Myr-p110s, Akt pT308, PI3Kα: 0.68; IC50 (μM) in Rh30-Myr-p110s, Akt pT308, PI3Kβ: 0.4; IC50 (μM) in Rh30-Myr-p110s, Akt pT308, PI3Kγ: 0.46; IC50 (μM) in Rh30-Myr-p110s, Akt pT308, PI3Kδ: 0.032; IC50 (μM) in Rh30-Myr-p110s, Akt pS473, PI3Kα: 0.53; IC50 (μM) in Rh30-Myr-p110s, Akt pS473, PI3Kβ: 0.29; IC50 (μM) in Rh30-Myr-p110s, Akt pS473, PI3Kγ: 0.23; IC50 (μM) in Rh30-Myr-p110s, Akt pS473, PI3Kδ: 0.02 DOUBTS OF THE COPYIST ABOUT THIS PICTURE: Panel B prints no substance label in the table itself; the label X-370 is taken from the other panels of the same picture, where it is the only substance printed. […]
as §4, §5, §6
(1 picture or pasted object on this page, not shown here) […]
in serum-free medium for 12 h and then incubated with serially diluted CAL -101 for an additional 1 h.
Cell lysates were probed with indicated antibodies. The IC50 values were calculated based on relative band intensity measured with ImageQuant™ TL (GE Healthcare Life Sciences, Piscataway, NJ). Data shown are mean values from three independent experiments.
Table S1: Inhibitory activity of X-370 against protein kinases […]
kinome at 10 μM. The relative kianse activity left in the presence of 10 μM were shown (Mi llipore […]
Kinase activity (% of control) Kinase activity (% of control) Kinase activity (% of control) […]
CDK1/cyclinB 97 Lck activated 89 Ret 125 […]

Compound | Erk1/2 phosphorylation (Raji MEK DD cells [1]) | antiproliferative activity alone [2] | antiproliferative activity alone (Raji MEK DD cells [3]) | phosphorylated Erk1/2, panel of pathway inhibitors (Raji cells; Raji (Figure 5B)) | phosphorylated Erk1/2, panel of pathway inhibitors (SU-DHL-6 cells; SU-DHL-6 (Figure 5B)) | phosphorylation of Akt and Erk1/2 (Raji cells; Raji, 1 h) | phosphorylation of Akt and Erk1/2 (SU-DHL-6 cells; SU-DHL-6, 1 h) | selectivity against PI3Kδ-mediated signaling at cellular level (Rh30-Myr-p110δ cells)
Cn1cnc2c(F)c(Nc3ccc(Br)cc3Cl)c(C(=O)NOCCO)cc21 [AZD6244] | abolished | little antiproliferative activity | little antiproliferative activity | down-regulated | down-regulated | – | – | –
CC[C@H](Nc1ncnc2[nH]cnc12)c1nc2cccc(F)c2c(=O)n1-c1ccccc1 [CAL-101, idelalisib, reference compound] | – | – | – | – | – | downregulated at low nanomolar concentrations | downregulated at low nanomolar concentrations | highly selective
